The test system of this assay is LPS-induced release of TNFα from human macrophages from healthy donors. The assay can be described thus: ELISA-based TNFα release assay, human macrophages from healthy donors. Type of assay: cell-based. Conditions: Macrophage, recombinant murine antibodies, final concentration of 10 µg/ml, Batimastat 10 μM, LPS 5 ng/ml, 2 hours. As to the method:
Complementary to Example 32 described above, ELISA-based TNFα release assays were performed to test the inhibitory effects of the antibodies on LPS-induced release of endogenous TNFα from human macrophages from healthy donors.
To obtain human macrophages, peripheral blood mononuclear cells (PBMCs) from 4 healthy donors were used. Cells from 5 ml human blood were resuspended in 20 ml of DMEM medium (Corning, USA) supplemented with 10% FCS (Atlanta Biological, USA) and Penicillin/Streptomycin (Corning, USA) (DMEM/FCS) and were then incubated on two 10 cm petri dishes (Thermo Fisher, USA) at 37° C., 5% CO2 for 3h. Non-adherent cells were subsequently removed and 6 ml of DMEM/FCS supplemented with 10 ng/ml human MCSF (Peprotech, USA) (DMEM/FCS/MCSF) was added per plate. Both plates were incubated at 37° C., 5% CO2 for 2 days, then 2 ml of DMEM/FCS/MCSF was added to each plate on day 2 and 4. On day 5, all medium was removed and attached cells were washed once with 5 ml PBS (Corning, USA). 2 ml of Accutase (Promocell, USA) solution was added to each plate and incubated at 37° C. for 15 min. 10 ml of DMEM/FCS was added to each plate and detached cells were collected in a 15 ml Falcon tube. Cells were subsequently pelleted in a tabletop centrifuge (Eppendorf, USA) at 1,500 rpm for 5 min. […] 10 μl from this cell suspension was manually counted in a hemocytometer (Thermo Fisher, USA). […]

Turning to `CNC(=O)[C@H](Cc1ccccc1)NC(=O)[C@H](CC(C)C)[C@H](CSc1cccs1)C(=O)NO` [Batimastat], the inhibition at 10 µM was determined as 68.3%.

The record behind these values is patent publication US20240174744A1, “METHODS OF TREATMENT USING PROTEIN BINDERS TO IRHOM2 EPITOPES” (SCIRHOM GMBH, priority 2021, published 2024).
